# Experimental data: patent US20110142959A1, “METHODS, SYSTEMS AND COMPOSITIONS INVOLVED IN THE SYNTHESIS OF NONSTABLE COMPOUNDS” (priority 2009, published 2011)
# Experiment: Degradation of ferrate (K2FeO4) in solution at various pH
# Type: physicochemical
# Method: FIG. 1 is a profile of the ferrate concentration starting at 0.1% (5 mM) at the native pH of K2FeO4, about 10.7. […] FIGS. 2 and 3 show the ferrate degrading faster at the higher pH's recommended by the Ciampi et al patent(s). Within about 21-46 minutes in the range of pH 11.2-11.8 the ferrate completely degraded. At this higher pH the Fe(OH)3 forms much faster and contributes to the acceleration in degradation.
# FIG. 4 discloses a slightly lower pH of 10.4 which was buffered to approximately pH 9 with NaOH. Ferrate was detected in the solution for about four hours.
substance,measurement,setting,value
K2FeO4,time ferrate was detected in the solution,"pH 10.4, buffered to approximately pH 9 with NaOH (FIG. 4)",about four
same,time within which the ferrate completely degraded,pH 11.2-11.8 (FIGS. 2 and 3),21 to 46 min
same,time ferrate was present in the solution,"starting at 0.1% (5 mM), native pH of K2FeO4 about 10.7 (FIG. 1)",about 220 minutes
